In patent publication US20240101573A1, “MACROCYCLIC K-RAS G12C INHIBITOR, PREPARATION METHOD THEREFOR AND USE THEREOF” (Abbisko Therapeutics Co., Ltd., priority 2020, published 2024):

Key:
MIA PaCa-2 = test: Anti-proliferation 2D CTG test (MIA PaCa-2); assay type: cell-based; details: MIAPACA-2 cells, 500 cells/well, 5 days incubation with compound, CTG readout
Procedure: (§1) When the cell confluency was 80%, the cells were isolated with 0.25% trypsin. The isolated cells were resuspended in 5 mL of fresh cell culture medium and centrifuged to collect the cells. The number of cells were counted at the same time. Then, the cells were suspended in a culture medium at a moderate concentration. The cells were placed into a 96-well plate with 1500 cells/well for H358 and 500 cells/well for MIAPACA-2. The 96-well plate was placed in an incubator at 37° C. and incubated overnight.
(§2) 2) Day 1: processing of compound
(§3) A 2 mM stock solution was serially diluted at 10 points at a ratio of 1:3. 5× culture medium containing the compound was transferred to the corresponding wells of 96 wells. The final peak concentration of the compound was […], and the final concentration of DMSO was 0.5%. The 96-well plate was placed in the incubator at 37° C. and incubated for 5 days.
(§4) 3) Baseline reading. 4) Day 6: reading of signals
(§5) A detection reagent (CTG) was added at 50 μL/well, and the signals were read in an Envision instrument.
(§6) The percentage of inhibition ([…]) at each compound concentration was calculated based on the signals from the HPE and ZPE control wells contained in each assay plate and the fluorescence signals from individual compound wells. The inhibition rate in the ZPE control wells containing the enzyme and substrate was 0%, and the inhibition rate in the HPE control wells only containing the substrate was […]. By testing the compound in terms of numeric concentration and inhibition percentage, the compound concentration required for […] inhibition (IC50) was determined using a four-parameter logarithmic dose-response equation. The endpoint value (IC50) of the reference compound was evaluated in each experiment as a quality control measure. If the endpoint value was within three times the expected value, the experiment was considered acceptable.

H358 = test: Anti-proliferation 2D CTG test (H358); assay type: cell-based; details: H358 cells, 1500 cells/well, 5 days incubation with compound, CTG readout
Procedure: as §1, §2, §3, §4, §5, §6

[1] = Homo sapiens, MIA PaCa-2, 120 h

| IC50 (MIA PaCa-2) [nM] | IC50 (H358) [nM] | IC50 (MIA PaCa-2; [1]) [nM] | IC50 (H358; Homo sapiens, NCI-H358, 120 h) [nM] | Structure (SMILES) |
| --- | --- | --- | --- | --- |
| 27 | 28 | – | – | C=CC(=O)N1CCN(c2nc(=O)n3c4nc(c(F)cc24)-c2c(F)cccc2OCC(O)C(OCC)c2ccnc(C(C)C)c2-3)[C@@H](C)C1 (stereo partly drawn) [Example 28, 2^4-((S)-4-acryloyl-2-methylpiperazin-1-yl)-7-ethoxy-2^6,3^6-difluoro-6-hydroxy-1^2-isopropyl-2^1,2^2-dihydro-4-oxa-2(1,7)-pyrido[2,3-d]pyrimidina-1(3,4)-pyridina-3(1,2)-benzocycloheptane-2^2-one] |
| 6 | 6 | – | – | C=CC(=O)N1CCN(c2nc(=O)n3c4nc(c(F)cc24)-c2c(F)cccc2OCC(OCC)C(O)c2ccnc(C(C)C)c2-3)[C@@H](C)C1 (stereo partly drawn) [Example 29, 2^4-((S)-4-acryloyl-2-methylpiperazin-1-yl)-6-ethoxy-2^6,3^6-difluoro-7-hydroxy-1^2-isopropyl-2^1,2^2-dihydro-4-oxa-2(1,7)-pyrido[2,3-d]pyrimidina-1(3,4)-pyridina-3(1,2)-benzocycloheptane-2^2-one] |
| 69 | 41 | – | – | C=CC(=O)N1CCN(c2nc(=O)n3c4nc(c(F)cc24)-c2c(F)cccc2OCC(O)C(OCC(F)F)c2ccnc(C(C)C)c2-3)[C@@H](C)C1 (stereo partly drawn) [Example 32, 2^4-((S)-4-acryloyl-2-methylpiperazin-1-yl)-7-(2,2-difluoroethoxy)-2^6,3^6-difluoro-6-hydroxy-1^2-isopropyl-2^1,2^2-dihydro-4-oxa-2(1,7)-pyrido[2,3-d]pyrimidina-1(3,4)-pyridina-3(1,2)-benzocycloheptane-2^2-one] |
| 154 | 42 | – | – | C=CC(=O)N1CCN(c2nc(=O)n3c4nc(c(F)cc24)-c2c(F)cccc2OCC(OCC(F)F)C(O)c2ccnc(C(C)C)c2-3)[C@@H](C)C1 (stereo partly drawn) [Example 33, 2^4-((S)-4-acryloyl-2-methylpiperazin-1-yl)-6-(2,2-difluoroethoxy)-2^6,3^6-difluoro-7-hydroxy-1^2-isopropyl-2^1,2^2-dihydro-4-oxa-2(1,7)-pyrido[2,3-d]pyrimidina-1(3,4)-pyridina-3(1,2)-benzocycloheptane-2^2-one] |
| 7 | 4 | – | – | C=CC(=O)N1CCN(c2nc(=O)n3c4nc(c(F)cc24)-c2c(F)cccc2OCC(OC(C)C)C(O)c2ccnc(C(C)C)c2-3)[C@@H](C)C1 (stereo partly drawn) [Example 34, 2^4-((S)-4-acryloyl-2-methylpiperazin-1-yl)-6-isopropoxy-2^6,3^6-difluoro-7-hydroxy-1^2-isopropyl-2^1,2^2-dihydro-4-oxa-2(1,7)-pyrido[2,3-d]pyrimidina-1(3,4)-pyridina-3(1,2)-benzocycloheptane-2^2-one] |
| 4 | 11 | – | – | C=CC(=O)N1C[C@H](C)N(c2nc(=O)n3c4nc(c(F)cc24)-c2c(F)cccc2OCC(O)C(OCC)c2ccnc(C(C)C)c2-3)C[C@H]1C (stereo partly drawn) [Example 35, 2^4-((2S,5R)-4-acryloyl-2,5-dimethylpiperazin-1-yl)-7-ethoxy-2^6,3^6-difluoro-6-hydroxy-1^2-isopropyl-2^1,2^2-dihydro-4-oxa-2(1,7)-pyrido[2,3-d]pyrimidina-1(3,4)-pyridina-3(1,2)-benzocycloheptane-2^2-one] |
| – | – | 1 | 1 | C=CC(=O)N1C[C@H](C)N(c2nc(=O)n3c4nc(c(F)cc24)-c2c(F)cccc2OCC(OCC)C(O)c2ccnc(C(C)C)c2-3)C[C@H]1C (stereo partly drawn) [Example 36, (R)-2^4-((2S,5R)-4-acryloyl-2,5-dimethylpiperazin-1-yl)-6-ethoxy-2^6,3^6-difluoro-7-hydroxy-1^2-isopropyl-2^1,2^2-dihydro-4-oxa-2(1,7)-pyrido[2,3-d]pyrimidina-1(3,4)-pyridina-3(1,2)-benzocycloheptane-2^2-one] |
| 5 | 14 | – | – | C=CC(=O)N1CCN(c2nc(=O)n3c4nc(c(F)cc24)-c2c(F)cccc2OCC(O)C(OCCF)c2ccnc(C(C)C)c2-3)[C@@H](C)C1 (stereo partly drawn) [Example 37, (R)-2^4-((S)-4-acryloyl-2-methylpiperazin-1-yl)-2^6,3^6-difluoro-7-(2-fluoroethoxy)-6-hydroxy-1^2-isopropyl-2^1,2^2-dihydro-4-oxa-2(1,7)-pyrido[2,3-d]pyrimidina-1(3,4)-pyridina-3(1,2)-benzocycloheptane-2^2-one] |
| 2 | 4 | – | – | C=CC(=O)N1CCN(c2nc(=O)n3c4nc(c(F)cc24)-c2c(F)cccc2OCC(OCCF)C(O)c2ccnc(C(C)C)c2-3)[C@@H](C)C1 (stereo partly drawn) [Example 39, (R)-2^4-((S)-4-acryloyl-2-methylpiperazin-1-yl)-2^6,3^6-difluoro-6-(2-fluoroethoxy)-7-hydroxy-1^2-isopropyl-2^1,2^2-dihydro-4-oxa-2(1,7)-pyrido[2,3-d]pyrimidina-1(3,4)-pyridina-3(1,2)-benzocycloheptane-2^2-one] |
| 2 | 3 | – | – | C=CC(=O)N1CCN(c2nc(=O)n3c4nc(c(F)cc24)-c2c(F)cccc2OCC(O)C(OC)c2ccnc(C(C)C)c2-3)[C@@H](C)C1 (stereo partly drawn) [Example 41, (R)-2^4-((S)-4-acryloyl-2-methylpiperazin-1-yl)-7-methoxy-2^6,3^6-difluoro-6-hydroxy-1^2-isopropyl-2^1,2^2-dihydro-4-oxa-2(1,7)-pyrido[2,3-d]pyrimidina-1(3,4)-pyridina-3(1,2)-benzocycloheptane-2^2-one] |
| 669 | 977 | – | – | C=CC(=O)N1CCN(c2nc(=O)n3c4nc(c(F)cc24)-c2c(F)cccc2OCC(O)C(OC)c2ccnc(C(C)C)c2-3)[C@@H](C)C1 (stereo partly drawn) [Example 42, (S)-2^4-((S)-4-acryloyl-2-methylpiperazin-1-yl)-7-methoxy-2^6,3^6-difluoro-6-hydroxy-1^2-isopropyl-2^1,2^2-dihydro-4-oxa-2(1,7)-pyrido[2,3-d]pyrimidina-1(3,4)-pyridina-3(1,2)-benzocycloheptane-2^2-one] |
| 6 | 5 | – | – | C=CC(=O)N1CCN(c2nc(=O)n3c4nc(c(F)cc24)-c2c(F)cccc2OCC(O)C(OCC)c2ccnc(C(C)C)c2-3)[C@@H](C)C1 (stereo partly drawn) [Example 43, (R)-2^4-((S)-4-acryloyl-2-methylpiperazin-1-yl)-7-ethoxy-2^6,3^6-difluoro-6-hydroxy-1^2-isopropyl-2^1,2^2-dihydro-4-oxa-2(1,7)-pyrido[2,3-d]pyrimidina-1(3,4)-pyridina-3(1,2)-benzocycloheptane-2^2-one] |
| 125 | 250 | – | – | C=CC(=O)N1CCN(c2nc(=O)n3c4nc(c(F)cc24)-c2c(F)cccc2OCC(O)C(OCC)c2ccnc(C(C)C)c2-3)[C@@H](C)C1 (stereo partly drawn) [Example 44, (S)-2^4-((S)-4-acryloyl-2-methylpiperazin-1-yl)-7-ethoxy-2^6,3^6-difluoro-6-hydroxy-1^2-isopropyl-2^1,2^2-dihydro-4-oxa-2(1,7)-pyrido[2,3-d]pyrimidina-1(3,4)-pyridina-3(1,2)-benzocycloheptane-2^2-one] |
| 2 | 2 | – | – | C=CC(=O)N1CCN(c2nc(=O)n3c4nc(c(F)cc24)-c2c(F)cccc2OCC(OCC)C(O)c2ccnc(C(C)C)c2-3)[C@@H](C)C1 (stereo partly drawn) [Example 45, (R)-2^4-((S)-4-acryloyl-2-methylpiperazin-1-yl)-6-ethoxy-2^6,3^6-difluoro-7-hydroxy-1^2-isopropyl-2^1,2^2-dihydro-4-oxa-2(1,7)-pyrido[2,3-d]pyrimidina-1(3,4)-pyridina-3(1,2)-benzocycloheptane-2^2-one] |
| 148 | 261 | – | – | C=CC(=O)N1CCN(c2nc(=O)n3c4nc(c(F)cc24)-c2c(F)cccc2OCC(OCC)C(O)c2ccnc(C(C)C)c2-3)[C@@H](C)C1 (stereo partly drawn) [Example 46, (S)-2^4-((S)-4-acryloyl-2-methylpiperazin-1-yl)-6-ethoxy-2^6,3^6-difluoro-7-hydroxy-1^2-isopropyl-2^1,2^2-dihydro-4-oxa-2(1,7)-pyrido[2,3-d]pyrimidina-1(3,4)-pyridina-3(1,2)-benzocycloheptane-2^2-one] |
| – | – | 5 | 9 | C=CC(=O)N1CCN(c2nc(=O)n3c4nc(c(F)cc24)-c2c(F)cccc2OCC(O)C(OCC2CC2)c2ccnc(C(C)C)c2-3)[C@@H](C)C1 (stereo partly drawn) [Example 47, (R)-2^4-((S)-4-acryloyl-2-methylpiperazin-1-yl)-7-(cyclopropylmethoxy)-2^6,3^6-difluoro-6-hydroxy-1^2-isopropyl-2^1,2^2-dihydro-4-oxa-2(1,7)-pyrido[2,3-d]pyrimidina-1(3,4)-pyridina-3(1,2)-benzocycloheptane-2^2-one] |
| 6 | 7 | – | – | C=CC(=O)N1CCN(c2nc(=O)n3c4nc(c(F)cc24)-c2c(F)cccc2OCC(OCC2CC2)C(O)c2ccnc(C(C)C)c2-3)[C@@H](C)C1 (stereo partly drawn) [Example 49, (R)-2^4-((S)-4-acryloyl-2-methylpiperazin-1-yl)-6-(cyclopropylmethoxy)-2^6,3^6-difluoro-7-hydroxy-1^2-isopropyl-2^1,2^2-dihydro-4-oxa-2(1,7)-pyrido[2,3-d]pyrimidina-1(3,4)-pyridina-3(1,2)-benzocycloheptane-2^2-one] |
